# Measured values reported in US20250346599A1, “TRICYCLIC PHTHALAZINONE PARP INHIBITORS AND METHODS OF USE” (Valo Health, Inc., priority 2022, published 2025).
# Target: PARP1 enzyme (Homo sapiens (Human), UniProt P09874)
# Assay: PARP Mass Spectroscopy Assay (PARP1 enzymatic assay, nicotinamide detection)
# Assay type: biochemical
# Conditions: 5 nM PARP1, 5 uM β-NAD, 60 min at RT, NAM by mass spectrometry
# Excerpt: Materials and Reagents: The PARP1 enzyme was purchased from BPS Bioscience (cat #80501). Tris-HCl, pH 8.0 was purchased from Corning (cat #46-031-CM). Magnesium chloride was purchased from Thermo Fisher Scientific (previously Honeywell Fluka, cat #63020-1L). All other assay components, activated DNA (cat #D4522), core histones (cat #SRP6590), β-Nicotinamide adenine dinucleotide (β-NAD—cat #N8285), 3ABA PARP1 small molecule inhibitor (from the PARP1 Enzyme Activity Assay kit, cat #17-10149), Sodium Chloride (NaCl, cat #56546-1L), Triton X-100 (cat #93443), Dithiothreitol (DTT, cat #43816-250 ML) were all purchased from Millipore Sigma.
# Assay Buffer: The assay buffer includes the following reagents: 50 mM Tris-HCl pH 8.0, 50 mM NaCl, 10 mM, MgCl2, 0.01% Triton X-100, and 1 mM DTT.
# PARP1 enzymatic assays were performed in 384-well plates in a total volume of 20 μL in the assay buffer. For concentration response curves, compounds were serially diluted 3-fold from 2 mM highest concentration […] to generate a 10-point curve, and 125 nL was transferred to the assay plate using the Echo acoustic dispenser for a final concentration range of 26.6 μM to […] in 10 μL reaction. Five microliters of 10 nM PARP1 enzyme and 100 nM core histones (2×) mix were added to the assay plates and pre-incubated for 30 mins at room temperature (RT). The reaction was initiated by the addition of a 5 μL of 10 uM β-NAD plus 0.02 mg/mL activated DNA (2×) mix. The reaction is incubated for 60 min at RT. The final concentration of the PARP1 enzyme and substrate concentrations were 5 nM and 5 uM, respectively. The positive control (high signal) and negative control (low signal) wells had 125 nL of DMSO in place of compounds. After the incubation is complete, the reaction is stopped by the addition of 10 μL of 10 uM of the 3ABA PARP1 inhibitor, incubated for 5 min at RT, and placed in the −80 C freezer for shipment to the Valo Health site in Branford Connecticut where mass spectrometry will be used to directly detect quantities of nicotinamide (NAM).
# The percent inhibition of enzyme activity was calculated according to the following equation: […]
# The values of Ssample, Shigh, and Slow in the equation refer to the NAM concentration detected in the assay wells, high control wells, and low control wells, respectively. To determine inhibitor IC50 values, % inhibition of the CRCs (concentration response curves) was fitted to the standard single-site four-parameter logistic equation.
# Sequence of PARP1 enzyme (P09874 whole entry): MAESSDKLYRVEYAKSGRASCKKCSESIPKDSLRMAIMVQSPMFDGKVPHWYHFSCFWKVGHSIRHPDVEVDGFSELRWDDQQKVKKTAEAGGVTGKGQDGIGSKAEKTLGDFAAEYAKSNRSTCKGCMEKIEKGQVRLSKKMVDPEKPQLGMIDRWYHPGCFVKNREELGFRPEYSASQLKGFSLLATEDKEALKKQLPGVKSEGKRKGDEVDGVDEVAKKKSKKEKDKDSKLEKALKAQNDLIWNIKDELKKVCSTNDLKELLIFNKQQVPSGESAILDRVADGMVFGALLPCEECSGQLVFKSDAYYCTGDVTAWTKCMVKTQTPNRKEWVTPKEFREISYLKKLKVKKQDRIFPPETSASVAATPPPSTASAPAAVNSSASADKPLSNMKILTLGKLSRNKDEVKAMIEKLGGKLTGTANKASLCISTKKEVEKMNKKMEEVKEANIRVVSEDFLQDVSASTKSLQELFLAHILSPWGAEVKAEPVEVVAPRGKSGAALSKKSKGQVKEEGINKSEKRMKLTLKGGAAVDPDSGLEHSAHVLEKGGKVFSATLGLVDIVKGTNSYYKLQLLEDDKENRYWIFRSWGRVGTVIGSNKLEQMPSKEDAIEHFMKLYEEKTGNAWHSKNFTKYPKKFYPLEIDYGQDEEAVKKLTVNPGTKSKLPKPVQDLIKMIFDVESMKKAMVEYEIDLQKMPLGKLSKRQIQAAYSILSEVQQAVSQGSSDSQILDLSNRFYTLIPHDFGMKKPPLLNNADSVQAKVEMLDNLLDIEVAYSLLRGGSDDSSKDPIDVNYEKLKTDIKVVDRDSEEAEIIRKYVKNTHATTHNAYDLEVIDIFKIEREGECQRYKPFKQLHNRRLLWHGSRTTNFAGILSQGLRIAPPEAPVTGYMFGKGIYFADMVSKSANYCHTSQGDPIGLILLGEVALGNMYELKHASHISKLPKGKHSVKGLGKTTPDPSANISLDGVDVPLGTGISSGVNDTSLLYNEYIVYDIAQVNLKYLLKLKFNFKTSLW
row,Structure (SMILES),IC50 [nM]
1,CC(C)[C@H]1Nc2cc(F)cc3c(=O)[nH]nc(c23)[C@@H]1c1ccccc1Cl [Compound 0222A],23
2,CN1CCC[C@@H]([C@H]2CNc3cc(F)cc4c(=O)[nH]nc2c34)C1 [Compound 0191D],35
3,O=c1[nH]nc2c3c(cc(F)cc13)N[C@@H](c1c(F)cc(F)cc1F)[C@@H]2C1CCNCC1 [Compound 0098B],30
4,C[C@@H]1Nc2cc(F)cc3c(=O)[nH]nc(c23)[C@H]1[C@@H]1CCCCN1C [Compound 0199D],25
5,O=c1[nH]nc2c3c(cc(F)cc13)N[C@@H](CF)[C@@H]2c1ccc(Cl)cc1F [Compound 0252A],57
6,O=c1[nH]nc2c3c(cc(F)cc13)N[C@@H](C1CCN(C3CCC(F)(F)CC3)CC1)[C@@H]2c1ccccc1Cl [Compound 0261B],301
7,N#Cc1ccc([C@H]2c3n[nH]c(=O)c4cc(F)cc(c34)N[C@@H]2C2CCN(C3CCC(F)(F)CC3)CC2)c(F)c1 [Compound 0276B],30
8,CN1CCC[C@H]([C@H]2CNc3cc(F)cc4c(=O)[nH]nc2c34)C1 [Compound 0191-8],46
9,O=c1[nH]nc2c3c(cc(F)cc13)N[C@@H]([C@H]1CCOC1)[C@@H]2c1ccccc1Cl [Compound 0121C],854
10,O=c1[nH]nc2c3c(cc(F)cc13)N[C@H](C1CCN(C3CCC(F)(F)CC3)CC1)[C@H]2c1ccccc1Cl [Compound 0261A],896
11,N#Cc1ccc([C@H]2c3n[nH]c(=O)c4cc(F)cc(c34)N[C@@H]2C2CCN(C3CCC(F)(F)CC3)CC2)c(F)c1 [Compound 0276A],281
12,"O=c1[nH]nc2c3c(cc(F)cc13)NC(C1CCNC1)C2c1ccccc1Cl (stereo not drawn) [Compound 0171, 12-(2-chlorophenyl)-7-fluoro-11-(pyrrolidin-3-yl)-2,3,10-triazatricyclo[7.3.1.0^{5,13}]trideca-1,5(13),6,8-tetraen-4-one]",91
13,N#Cc1ccc([C@@H]2CNc3cc(F)cc4c(=O)[nH]nc2c34)c(F)c1 [Compound 0187A],9
14,"CN1CCC([C@H]2Nc3cc(F)cc4c(=O)[nH]nc(c34)[C@@H]2c2ccc(F)cc2F)CC1 [Compound 0110A, (8R,9R)-9-(2,4-difluorophenyl)-5-fluoro-8-(1-methylpiperidin-4-yl)-2,7,8,9-tetrahydro-3H-pyrido[4,3,2-de]phthalazin-3-one]",1400
15,CN1CCCC[C@@H]1[C@H]1CNc2cc(F)cc3c(=O)[nH]nc1c23 [Compound 0192B],22
16,O=c1[nH]nc2c3c(cc(F)cc13)N[C@@H](C1CCN(C3CCC(F)(F)CC3)CC1)[C@@H]2c1ccc(F)cc1F [Compound 0271A],936
17,C[C@H]1Nc2cc(F)cc3c(=O)[nH]nc(c23)[C@H]1[C@@H]1CCCN(C)C1 [Compound 0198B],39
18,O=c1[nH]nc2c3c(cc(F)cc13)N[C@@H](C1(F)CC1)[C@@H]2c1ccc(Cl)cc1F [Compound 0255A],4
19,O=c1[nH]nc2c3c(cc(F)cc13)N[C@H](CF)[C@H]2c1ccc(Cl)cc1F [Compound 0252B],8
20,CC1Nc2cc(F)cc3c(=O)[nH]nc(c23)C1c1ccc(Cl)cc1F (stereo not drawn) [Compound 0196-5],9
21,O=c1[nH]nc2c3c(cc(F)cc13)NC(C1CCN(C3CCC(F)(F)CC3)CC1)C2c1ccc(F)cc1F (stereo not drawn) [Compound 0271-6],4
22,Cn1ncnc1[C@H]1c2n[nH]c(=O)c3cc(F)cc(c23)N[C@@H]1C1CCN(C2CCC(F)(F)CC2)CC1 [Compound 0266B],5780
23,C[C@H]1Nc2cc(F)cc3c(=O)[nH]nc(c23)[C@@H]1[C@@H]1CCCCN1C [Compound 0199B],118

row,Structure (SMILES),IC50 [nM]
1,N#Cc1ccc([C@H]2CNc3cc(F)cc4c(=O)[nH]nc2c34)cc1F [Compound 0186B],41
2,"CC[C@H]1Nc2cc(F)cc3c(=O)[nH]nc(c23)[C@@H]1c1ccccc1Cl [Compound 0206B, (11R,12R)-12-(2-chlorophenyl)-11-ethyl-7-fluoro-2,3,10-triazatricyclo[7.3.1.0^{5,13}]trideca-1,5(13),6,8-tetraen-4-one]",6
3,"O=c1[nH]nc2c3c(cc(F)cc13)NC[C@@H]2c1ccc(Cl)c(F)c1 [Compound 0188B, (S)-9-(4-chloro-3-fluorophenyl)-5-fluoro-2,7,8,9-tetrahydro-3H-pyrido[4,3,2-de]phthalazin-3-one]",99
4,"CC1Nc2cc(F)cc3c(=O)[nH]nc(c23)C1c1ccc(Cl)c(F)c1 (stereo not drawn) [Compound 0195-5, 9-(4-chloro-3-fluorophenyl)-5-fluoro-8-methyl-2,7,8,9-tetrahydro-3H-pyrido[4,3,2-de]phthalazin-3-one]",18
5,CC(=O)N1CCC([C@H]2Nc3cc(F)cc4c(=O)[nH]nc(c34)[C@@H]2c2ccccc2Cl)CC1 [Compound 0223A],1200
6,O=c1[nH]nc2c3c(cc(F)cc13)N[C@H](C1CCC(F)(F)CC1)[C@H]2c1ccccc1Cl [Compound 0213A],352
7,O=c1[nH]nc2c3c(cc(F)cc13)NC(C1CCOC1)C2c1ccccc1Cl (stereo not drawn) [Compound 0121-4],39
8,"O=c1[nH]nc2c3c(cc(F)cc13)NC(C1CCNC1)C2c1ccc(F)cc1F (stereo not drawn) [Compound 0173A, 12-(2,4-difluorophenyl)-7-fluoro-11-(pyrrolidin-3-yl)-2,3,10-triazatricyclo[7.3.1.0^{5,13}]trideca-1,5(13),6,8-tetraen-4-one]",70
9,CN1CCCC[C@@H]1[C@@H]1CNc2cc(F)cc3c(=O)[nH]nc1c23 [Compound 0192A],27
10,N#Cc1ccc([C@H]2c3n[nH]c(=O)c4cc(F)cc(c34)N[C@@H]2C2CCC(F)(F)CC2)cc1F [Compound 0214A],108
11,C[C@@H]1Nc2cc(F)cc3c(=O)[nH]nc(c23)[C@H]1[C@H]1CCCN(C)C1 [Compound 0198C],45
12,O=c1[nH]nc2c3c(cc(F)cc13)NC(C1(F)CC1)C2c1ccc(Cl)cc1F (stereo not drawn) [Compound 0255-6],4
13,C[C@@H]1Nc2cc(F)cc3c(=O)[nH]nc(c23)[C@H]1c1ccc(C#N)cc1F [Compound 0194B],35
14,O=c1[nH]nc2c3c(cc(F)cc13)NC(COCc1ccccc1)C2c1ccccc1Cl (stereo not drawn) [Compound 0257-4],593
15,CC(C)[C@H]1Nc2cc(F)cc3c(=O)[nH]nc(c23)[C@@H]1c1c(F)cc(F)cc1F [Compound 0221A],2
16,N#Cc1ccc([C@@H]2c3n[nH]c(=O)c4cc(F)cc(c34)N[C@H]2C2CCC(F)(F)CC2)cc1F [Compound 0214B],20
17,"N#Cc1ccc(C2c3n[nH]c(=O)c4cc(F)cc(c34)NC2c2c(F)cc(F)cc2F)cc1F (stereo not drawn) [0092A; 0092B, 2-fluoro-4-(5-fluoro-3-oxo-8-(2,4,6-trifluorophenyl)-2,7,8,9-tetrahydro-3H-pyrido[4,3,2-de]phthalazin-9-yl)benzonitrile]",13
18,C[C@H]1Nc2cc(F)cc3c(=O)[nH]nc(c23)[C@@H]1[C@H]1CCCCN1C [Compound 0199A],65
19,O=c1[nH]nc2c3c(cc(F)cc13)N[C@H]([C@@H]1CCOC1)[C@H]2c1ccccc1Cl [Compound 0121B],236
20,C[C@H]1Nc2cc(F)cc3c(=O)[nH]nc(c23)[C@@H]1C1CCN(C)CC1 [Compound 0197A],447
21,C[C@H]1Nc2cc(F)cc3c(=O)[nH]nc(c23)[C@@H]1[C@@H]1CCCN(C)C1 [Compound 0198D],42
22,O=c1[nH]nc2c3c(cc(F)cc13)NC[C@H]2c1ccc(Cl)cc1F [Compound 0189A],79
